Experimental data taken from patent US7241878B1, “Modified cellulose synthase gene from Arabidopsis thaliana confers herbicide resistance to plants” (U.S. Department of Energy, priority 1999, dated 2007).

Assays:
[1] = test system: cellulose synthesis in algae and plants; conditions: cited from earlier work
ixr1-1 mutant = conditions: 12 μM; cited from earlier work
wild type Arabidopsis = conditions: 12 μM; cited from earlier work
[2] = test system: ixr1-1 and ixr1-2 mutant plants; assay: growth analysis under isoxaben spray, ixr1 mutant plants; conditions: 2.0 μM isoxaben
Method: (§1) Seeds from wild-type Col and Ler, ixr1-1 and ixr1-2 homozygous mutants and F1- and F2-seeds were germinated again and treated as described using 2.0 μM isoxaben in the solution.

[3] = test system: ixr1-1-, ixr1-2- and wild-type Arabidopsis plants; assay: isoxaben-resistance pilot screen, spraying of soil-grown plants; type: in vivo, Arabidopsis thaliana; conditions: sprayed every 3 days from seedling stage, 1 ml/6 cm^2 soil surface, 0.025% DMSO
Method: Seeds from homozygous isoxaben-resistant mutants ixr1-1 (DH47) and ixr1-2 (DH48) (Heim et al., 1989) were obtained from the Arabidopsis Biological Resource Center, Columbus, Ohio (ABRC stock numbers CS 6201 and CS 6202). Seeds were vernalized for five days in 0.15% water agar at 6° C. prior to planting in a commercial peat-vermiculite-perlite mix (ProMix HP with a 1 cm top-layer of ProMix PGX, Premier Horticulture Inc., Red Hill, Pa., Canada). Plants were grown in the greenhouses of Carnegie Institution of Washington, Department of Plant Biology, Stanford, Calif. between July 1998 and June 1999. Seeds from self-pollinated ixr1-1 and ixr1-2 mutants were collected separately and used for further experiments.
Isoxaben (95%, N-3-[1-ethyl-1-methyl-propyl]-5-isoxazolyl-2, 6-dimethoxybenzamide) was graciously supplied by DowElanco (Indianapolis, Ind.) and was made up as a concentrated dimethylsulfoxide (DMSO) stock solution and used at concentrations ranging from 0.03 to 10.0 μM. The final concentration of DMSO was always 0.025%. Control cultures without isoxaben contained the same amount of DMSO as the isoxaben-treated cultures; no effect of DMSO was noted.

[4] = test system: wild-type Col and Ler plants; assay: growth analysis under isoxaben spray, wild-type plants; conditions: 2.0 μM isoxaben in the spray solution
Method: as §1

cellulose biosynthesis = conditions: compared with dichlobenil, another cellulose synthesis inhibitor; cited from earlier work
Brassica napus = conditions: in vivo; read-out: I50 for Brassica napus; cited from earlier work
[5] = test system: seed germination, mitosis, respiration, photosynthesis, and lipid and RNA synthesis; conditions: cited from earlier work

Compound: N#Cc1c(Cl)cccc1Cl [DCB, 2,6-dichlorobenzonitrile]
- inhibition of cellulose synthesis [1]: effective and specific inhibitor

Compound: CC(C)(C)NC(=O)OC1SCN(c2cccc(C(F)(F)F)c2)C1=O (stereo not shown) [TZ, 5-tert-butyl-carbamoyloxy-3-(3-trifluromethyl) phenyl-4-thiazolidnone]
- reduction of growth of the ixr1-1 mutant (ixr1-1 mutant): 50%
- effect on wild type Arabidopsis (wild type Arabidopsis): kills

Compound: CCC(C)(CC)c1cc(NC(=O)c2c(OC)cccc2OC)on1 [isoxaben, N-3-[1-ethyl-1-methyl-propyl]-5-isoxazolyl-2,6-dimethoxybenzamide]
- growth of heterozygous mutant F1-plants ([2]; heterozygous F1, compared to the homozygous mutants): clearly reduced growth
- growth of homozygous mutants ([2]; homozygous ixr1-1 and ixr1-2 (ixr1-1 grew better than ixr1-2)): grew well
- concentration in the application solution high enough to discriminate resistant and susceptible plants [3]: 1.0 to 3.0 µM
- growth of wild-type plants [4]: didn't grow at all
- acts at lower concentrations than dichlobenil (factor) (cellulose biosynthesis): < 40 ×
- IC50 (Brassica napus): 20 nM
- effect on other cellular processes [5]: unaffected
